Experimental findings from patent US11492385B2, “Long-acting co-agonists of the glucagon and GLP-1 receptors” (Merck Sharp & Dohme Corp., priority 2015, dated 2022) are described below.

One assay deals with T1, human GLP1R (Homo sapiens, UniProt P43220).
T1 construct: expressed in transfected cells; kept under Blasticidin and Hygromycin selection
Briefly: cAMP activity assay, cells expressing human GLP1R. It counts as cell-based. The note with it: cAMP production, assay buffer with or without 20% human serum (not stated which). On the procedure: (§1) Activity of the peptides at the Glucagon receptor (GCGR) and GLP-1 receptor (GLP1R) was measured in a cAMP activity assay. Peptides were dissolved in 100% DMSO and serially diluted to generate 10 point titrations. The peptide solutions were then transferred into 384-well assay plates (150 nL/well). […] Production of cAMP was determined using […] kits (DiscoverX) following manufacturer protocol. The plates were incubated for overnight at room temperature in the dark. Luminescence was measured using an EnVision Multilabel plate reader (Perkin Elmer). Native GLP-1 and Glucagon (Bachem) are used as control peptides. EC50 values were calculated using uses a 4 parameter logistic fit based on the Levenberg-Marquardt algorithm.
(In general: cAMP levels reflect the balance of adenylyl cyclase and phosphodiesterase activity.)

The target in another assay is T2, human GCGR (Homo sapiens, UniProt P47871).
T2 construct: expressed in transfected cells; kept under Blasticidin and Hygromycin selection
Kind of assay: cAMP activity assay, cells expressing human GCGR. It counts as cell-based. To be noted: for EC50: cAMP production, cells expressing human GCGR, assay buffer with or without 20% human serum (not stated which), read-out: GCGR EC50 human; for hGCGR/hGLP1R (hTone): ratio of human GCGR EC50 to human GLP1R EC50. On the procedure: as §1

Starred links: 1 amine or outer side, 2 acyl side, 3 side chain; linkers in the order of their positions; H or OH if unused. Non-standard residues stand in square brackets, D forms with d. Residues, ends and D or L forms follow the SMILES beside them. Groups on a side chain read outwards from the residue. *: point of attachment. Phe(4-CH2NH2) = NCc1ccc(C[C@H](N)C(=O)O)cc1; C16 diacid = O=C(O)CCCCCCCCCCCCCCC(=O)*; γGlu = O=C(O)[C@H](CCC(=O)[*:2])N[*:1]; Met(O2) = CS(=O)(=O)CC[C@H](N)C(=O)O; AEEA = NCCOCCOCC(=O)O; Aib = CC(C)(N)C(=O)O

T1 sequence (P43220 24-463): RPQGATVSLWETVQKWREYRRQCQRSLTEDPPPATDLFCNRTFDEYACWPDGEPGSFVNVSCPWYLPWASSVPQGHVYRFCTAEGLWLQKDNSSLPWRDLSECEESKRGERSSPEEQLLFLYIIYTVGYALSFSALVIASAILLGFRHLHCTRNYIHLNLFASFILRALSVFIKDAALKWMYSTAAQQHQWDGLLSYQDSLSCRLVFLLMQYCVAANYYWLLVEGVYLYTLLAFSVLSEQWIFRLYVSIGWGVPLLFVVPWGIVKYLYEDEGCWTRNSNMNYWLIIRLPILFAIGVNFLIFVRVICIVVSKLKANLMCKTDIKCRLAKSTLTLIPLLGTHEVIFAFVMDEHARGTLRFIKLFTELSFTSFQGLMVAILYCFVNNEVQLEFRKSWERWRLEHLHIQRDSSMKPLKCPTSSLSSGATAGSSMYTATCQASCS
T2 sequence (P47871 26-477): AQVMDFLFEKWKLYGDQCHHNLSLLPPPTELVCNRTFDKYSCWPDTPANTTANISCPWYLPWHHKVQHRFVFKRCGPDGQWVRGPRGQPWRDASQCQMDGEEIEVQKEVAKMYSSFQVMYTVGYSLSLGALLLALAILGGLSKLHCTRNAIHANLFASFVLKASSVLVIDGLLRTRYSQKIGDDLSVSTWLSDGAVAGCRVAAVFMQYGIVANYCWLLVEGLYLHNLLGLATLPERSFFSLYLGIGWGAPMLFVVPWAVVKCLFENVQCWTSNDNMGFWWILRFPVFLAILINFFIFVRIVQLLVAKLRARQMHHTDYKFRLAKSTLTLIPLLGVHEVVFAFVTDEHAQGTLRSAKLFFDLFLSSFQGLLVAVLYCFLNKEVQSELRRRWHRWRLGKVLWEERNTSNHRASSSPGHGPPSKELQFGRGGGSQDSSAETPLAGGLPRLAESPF

For the molecule `CC(C)C[C@H](NC(=O)[C@H](Cc1ccc(O)cc1)NC(=O)[C@H](CCCCN)NC(=O)[C@H](CO)NC(=O)[C@H](Cc1ccc(CNC(=O)COCCOCCNC(=O)COCCOCCNC(=O)CC[C@H](NC(=O)CCCCCCCCCCCCCCC(=O)O)C(=O)O)cc1)NC(=O)[C@H](CC(=O)O)NC(=O)[C@H](CO)NC(=O)[C@@H](NC(=O)[C@H](Cc1ccccc1)NC(=O)[C@@H](NC(=O)CNC(=O)[C@H](CCC(N)=O)NC(=O)C(C)(C)NC(=O)[C@@H](N)Cc1c[nH]cn1)[C@@H](C)O)[C@@H](C)O)C(=O)N[C@@H](CC(=O)O)C(=O)N[C@@H](C)C(=O)N[C@@H](CCCNC(=N)N)C(=O)N[C@@H](C)C(=O)N[C@@H](C)C(=O)N[C@@H](CCC(N)=O)C(=O)N[C@@H](CC(=O)O)C(=O)N[C@@H](Cc1ccccc1)C(=O)N[C@H](C(=O)N[C@@H](CCC(N)=O)C(=O)N[C@@H](Cc1c[nH]c2ccccc12)C(=O)N[C@@H](CC(C)C)C(=O)N[C@@H](CCS(C)(=O)=O)C(=O)N[C@@H](CC(=O)O)C(=O)N[C@H](C(N)=O)[C@@H](C)O)C(C)C` [compound 12] (H-H[Aib]QGTFTSD[Phe(4-CH2NH2)]([AEEA-AEEA-γGlu-C16 diacid])SKYLDARAAQDFVQWL[Met(O2)]DT-NH2; N-terminus assumed), the EC50 at human GLP1R is 0.07 nM. On human GCGR, the EC50 turned out to be 0.14 nM and the “hGCGR/hGLP1R (hTone)” value is listed as 1.89.

In the case of `CC(C)C[C@H](NC(=O)[C@H](Cc1ccc(O)cc1)NC(=O)[C@H](CCCCN)NC(=O)[C@H](CO)NC(=O)[C@H](Cc1ccc(O)cc1)NC(=O)[C@H](CC(=O)O)NC(=O)[C@H](CO)NC(=O)[C@@H](NC(=O)[C@H](Cc1ccccc1)NC(=O)[C@@H](NC(=O)CNC(=O)[C@H](CCC(N)=O)NC(=O)[C@@H](CO)NC(=O)[C@@H](N)Cc1c[nH]cn1)[C@@H](C)O)[C@@H](C)O)C(=O)N[C@@H](CC(=O)O)C(=O)N[C@@H](C)C(=O)N[C@@H](CCCNC(=N)N)C(=O)N[C@@H](C)C(=O)N[C@@H](C)C(=O)N[C@@H](CCCCNC(=O)COCCOCCNC(=O)COCCOCCNC(=O)CC[C@H](NC(=O)CCCCCCCCCCCCCCC(=O)O)C(=O)O)C(=O)N[C@@H](CC(=O)O)C(=O)N[C@@H](Cc1ccccc1)C(=O)N[C@H](C(=O)N[C@@H](CCC(N)=O)C(=O)N[C@@H](Cc1c[nH]c2ccccc12)C(=O)N[C@@H](CC(C)C)C(=O)N[C@@H](CCS(C)(=O)=O)C(=O)N[C@@H](CC(=O)O)C(=O)N[C@H](C(N)=O)[C@@H](C)O)C(C)C` [compound 14] (H-H[dS]QGTFTSDYSKYLDARAAK([AEEA-AEEA-γGlu-C16 diacid])DFVQWL[Met(O2)]DT-NH2), the figures for the 50% effective concentration (EC50) on human GLP1R and on human GCGR were 1.13 nM and 0.04 nM, respectively. Further, the “hGCGR/hGLP1R (hTone)” value on human GCGR worked out at 0.03.

Consider `CC(C)C[C@H](NC(=O)[C@H](Cc1ccc(O)cc1)NC(=O)[C@H](CCCCN)NC(=O)[C@H](CO)NC(=O)[C@H](Cc1ccc(O)cc1)NC(=O)[C@H](CC(=O)O)NC(=O)[C@H](CO)NC(=O)[C@@H](NC(=O)[C@H](Cc1ccccc1)NC(=O)[C@@H](NC(=O)CNC(=O)[C@H](CCC(N)=O)NC(=O)[C@@H](CO)NC(=O)[C@@H](N)Cc1c[nH]cn1)[C@@H](C)O)[C@@H](C)O)C(=O)N[C@@H](CC(=O)O)C(=O)N[C@@H](C)C(=O)N[C@@H](CCCNC(=N)N)C(=O)N[C@@H](C)C(=O)N[C@@H](C)C(=O)N[C@@H](CCC(N)=O)C(=O)N[C@@H](CCCCNC(=O)COCCOCCNC(=O)COCCOCCNC(=O)CC[C@H](NC(=O)CCCCCCCCCCCCCCC(=O)O)C(=O)O)C(=O)N[C@@H](Cc1ccccc1)C(=O)N[C@H](C(=O)N[C@@H](CCC(N)=O)C(=O)N[C@@H](Cc1c[nH]c2ccccc12)C(=O)N[C@@H](CC(C)C)C(=O)N[C@@H](CCS(C)(=O)=O)C(=O)N[C@@H](CC(=O)O)C(=O)N[C@H](C(N)=O)[C@@H](C)O)C(C)C` [compound 15] (H-H[dS]QGTFTSDYSKYLDARAAQK([AEEA-AEEA-γGlu-C16 diacid])FVQWL[Met(O2)]DT-NH2), for which the concentration for a half-maximal effect (EC50) on human GLP1R turned out to be 0.22 nM. Moreover, on human GCGR, the concentration giving a half-maximal response (EC50) stood at 0.01 nM and the “hGCGR/hGLP1R (hTone)” value amounted to 0.07.

For the molecule `CC(C)C[C@H](NC(=O)[C@H](Cc1ccc(O)cc1)NC(=O)[C@H](CCCCN)NC(=O)[C@H](CO)NC(=O)[C@H](Cc1ccc(O)cc1)NC(=O)[C@H](CC(=O)O)NC(=O)[C@H](CO)NC(=O)[C@@H](NC(=O)[C@H](Cc1ccccc1)NC(=O)[C@@H](NC(=O)CNC(=O)[C@H](CCC(N)=O)NC(=O)[C@@H](CO)NC(=O)[C@@H](N)Cc1c[nH]cn1)[C@@H](C)O)[C@@H](C)O)C(=O)N[C@@H](CC(=O)O)C(=O)N[C@@H](CCC(=O)O)C(=O)N[C@@H](CCCNC(=N)N)C(=O)N[C@@H](C)C(=O)N[C@@H](C)C(=O)N[C@@H](CCC(N)=O)C(=O)N[C@@H](CCCCNC(=O)COCCOCCNC(=O)COCCOCCNC(=O)CC[C@H](NC(=O)CCCCCCCCCCCCCCC(=O)O)C(=O)O)C(=O)N[C@@H](Cc1ccccc1)C(=O)N[C@H](C(=O)N[C@@H](CCC(N)=O)C(=O)N[C@@H](Cc1c[nH]c2ccccc12)C(=O)N[C@@H](CC(C)C)C(=O)N[C@@H](CCS(C)(=O)=O)C(=O)N[C@@H](CC(=O)O)C(=O)N[C@H](C(N)=O)[C@@H](C)O)C(C)C` [compound 16] (H-H[dS]QGTFTSDYSKYLDERAAQK([AEEA-AEEA-γGlu-C16 diacid])FVQWL[Met(O2)]DT-NH2), the results for the EC50 at human GLP1R and at human GCGR were 0.31 nM and 0.03 nM, respectively. Moreover, the “hGCGR/hGLP1R (hTone)” value on human GCGR was determined as 0.09.

Turning to `CC(C)C[C@H](NC(=O)[C@H](Cc1ccc(O)cc1)NC(=O)[C@H](CCCCN)NC(=O)[C@H](CO)NC(=O)[C@H](Cc1ccc(O)cc1)NC(=O)[C@H](CC(=O)O)NC(=O)[C@H](CO)NC(=O)[C@@H](NC(=O)[C@H](Cc1ccccc1)NC(=O)[C@@H](NC(=O)CNC(=O)[C@H](CCC(N)=O)NC(=O)C(C)(C)NC(=O)[C@@H](N)Cc1c[nH]cn1)[C@@H](C)O)[C@@H](C)O)C(=O)N[C@@H](CC(=O)O)C(=O)N[C@@H](C)C(=O)N[C@@H](CCCNC(=N)N)C(=O)N[C@@H](C)C(=O)N[C@@H](C)C(=O)N[C@@H](CCCCNC(=O)COCCOCCNC(=O)COCCOCCNC(=O)CC[C@H](NC(=O)CCCCCCCCCCCCCCC(=O)O)C(=O)O)C(=O)N[C@@H](CC(=O)O)C(=O)N[C@@H](Cc1ccccc1)C(=O)N[C@H](C(=O)N[C@@H](CCC(N)=O)C(=O)N[C@@H](Cc1c[nH]c2ccccc12)C(=O)N[C@@H](CC(C)C)C(=O)N[C@@H](CC(C)C)C(=O)N[C@@H](CC(=O)O)C(=O)N[C@H](C(N)=O)[C@@H](C)O)C(C)C` [compound 17] (H-H[Aib]QGTFTSDYSKYLDARAAK([AEEA-AEEA-γGlu-C16 diacid])DFVQWLLDT-NH2), the EC50 at human GLP1R amounted to 0.1 nM; on human GCGR, 0.14 nM. Also, the “hGCGR/hGLP1R (hTone)” value at human GCGR is 1.44.

Turning to `CC(C)C[C@H](NC(=O)[C@H](Cc1ccc(O)cc1)NC(=O)[C@H](CCCCN)NC(=O)[C@H](CO)NC(=O)[C@H](Cc1ccc(O)cc1)NC(=O)[C@H](CC(=O)O)NC(=O)[C@H](CO)NC(=O)[C@@H](NC(=O)[C@H](Cc1ccccc1)NC(=O)[C@@H](NC(=O)CNC(=O)[C@H](CCC(N)=O)NC(=O)C(C)(C)NC(=O)[C@@H](N)Cc1c[nH]cn1)[C@@H](C)O)[C@@H](C)O)C(=O)N[C@@H](CC(=O)O)C(=O)N[C@@H](C)C(=O)N[C@@H](CCCNC(=N)N)C(=O)N[C@@H](C)C(=O)N[C@@H](C)C(=O)N[C@@H](CCC(N)=O)C(=O)N[C@@H](CCCCNC(=O)COCCOCCNC(=O)COCCOCCNC(=O)CC[C@H](NC(=O)CCCCCCCCCCCCCCC(=O)O)C(=O)O)C(=O)N[C@@H](Cc1ccccc1)C(=O)N[C@H](C(=O)N[C@@H](CCC(N)=O)C(=O)N[C@@H](Cc1c[nH]c2ccccc12)C(=O)N[C@@H](CC(C)C)C(=O)N[C@@H](CC(C)C)C(=O)N[C@@H](CC(=O)O)C(=O)N[C@H](C(N)=O)[C@@H](C)O)C(C)C` [compound 18] (H-H[Aib]QGTFTSDYSKYLDARAAQK([AEEA-AEEA-γGlu-C16 diacid])FVQWLLDT-NH2), the values for the half-maximal effective concentration (EC50) at human GLP1R and on human GCGR were 0.03 nM and 0.07 nM, respectively. Moreover, the “hGCGR/hGLP1R (hTone)” value on human GCGR amounted to 2.19.

For the molecule `CC(C)C[C@H](NC(=O)[C@H](Cc1ccc(O)cc1)NC(=O)[C@H](CCCCN)NC(=O)[C@H](CO)NC(=O)[C@H](Cc1ccc(O)cc1)NC(=O)[C@H](CC(=O)O)NC(=O)[C@H](CO)NC(=O)[C@@H](NC(=O)[C@H](Cc1ccccc1)NC(=O)[C@@H](NC(=O)CNC(=O)[C@H](CCC(N)=O)NC(=O)C(C)(C)NC(=O)[C@@H](N)Cc1c[nH]cn1)[C@@H](C)O)[C@@H](C)O)C(=O)N[C@@H](CC(=O)O)C(=O)N[C@@H](C)C(=O)N[C@@H](CCCNC(=N)N)C(=O)N[C@@H](C)C(=O)N[C@@H](C)C(=O)N[C@@H](CCCCNC(=O)COCCOCCNC(=O)COCCOCCNC(=O)CC[C@H](NC(=O)CCCCCCCCCCCCCCC(=O)O)C(=O)O)C(=O)N[C@@H](CC(=O)O)C(=O)N[C@@H](Cc1ccccc1)C(=O)N[C@H](C(=O)N[C@@H](CCC(N)=O)C(=O)N[C@@H](Cc1c[nH]c2ccccc12)C(=O)N[C@@H](CC(C)C)C(=O)N[C@@H](CCS(C)(=O)=O)C(=O)N[C@@H](CC(=O)O)C(=O)N[C@H](C(N)=O)[C@@H](C)O)C(C)C` [compound 19] (H-H[Aib]QGTFTSDYSKYLDARAAK([AEEA-AEEA-γGlu-C16 diacid])DFVQWL[Met(O2)]DT-NH2), the response at human GLP1R was half-maximal at 0.04 nM (EC50). At human GCGR, the EC50 was 0.08 nM and the “hGCGR/hGLP1R (hTone)” value stood at 2.15.

Broadly, the EC50 is the midpoint of the concentration-response curve.
